Measurements taken from US20240122865A1, “Methods of Protecting RNA” (Pfizer Inc., priority 2021, published 2024).

Assays:
Format in all cases: biochemical, Trichoderma atroviride
FgenL mRNA construct = test: Size Exclusion Base Hydrolysis Degradation Assay, FgenL; details: 25 mM amino acid; for T0 R1 peak area at 250 nm: FgenL 0.1 mg/mL, 50 mM CAPS, T=0, replicate 1; for T2 Avg, peak area as percentage of T=0 / T2 R1 peak area at 250 nm / T10 Avg, peak area as percentage of T=0 / T10 R1 peak area at 250 nm / T24 Avg, peak area as percentage of T=0 / T24 R1 peak area at 250 nm / T0 Avg, peak area as percentage of T=0: FgenL; for T2 Avg, peak area as percentage of T=0 / T2 R1 peak area at 250 nm / T10 Avg, peak area as percentage of T=0 / T10 R1 peak area at 250 nm / T24 Avg, peak area as percentage of T=0 / T24 R1 peak area at 250 nm: 50 mM CAPS pH 11, room temperature; for T2 Avg, peak area as percentage of T=0 / T2 R1 peak area at 250 nm: 2 hrs; for T2 R1 peak area at 250 nm / T10 R1 peak area at 250 nm / T24 R1 peak area at 250 nm: replicate 1; for T10 Avg, peak area as percentage of T=0 / T10 R1 peak area at 250 nm: 10 hrs; for T24 Avg, peak area as percentage of T=0 / T24 R1 peak area at 250 nm: 24 hrs; for T0 Avg, peak area as percentage of T=0: T=0 (reference)
Experimental: (§1) Basic assay procedure: RNA samples were diluted to 1.0 mg/mL in DNAase/RNAase free water. Amino acids were dissolved in water to a stock solution of 100 mM and a solution of 500 mM CAPS pH 11 was used. The two mRNA constructs tested were FgenL and Chi18. Each individual sample volume was 50 μL. To determine the amount of 1 M NaOH needed to adjust the final pH to 11.0 after the addition of all sample components, the sample volume was increased 100 fold (5 mL), the volume of 1 M NaOH recorded and this value was translated back down to the 50 μL sample volume.
(§2) The mRNA and amino acid were allowed to incubate for one hour prior to the addition of CAPS pH 11. All steps of the assay were conducted at room temperature.
(§3) Degradation reaction: After the CAPS addition, the samples were injected onto the Waters H-Class UPLC system to record the first timepoint, T=O. This resulting chromatogram was processed by integrating the area of absorbance at 250 nm for the mRNA construct. Immediately following this timepoint, the pH was adjusted to 11. Subsequent time points (2 hrs, 10 hrs, and 24 hrs) recorded the Absorbance Units (peak area) at 250 nm as a percentage of the peak area determined at T=O. Integration of the chromatogram for subsequent timepoints was conducted by analyzing the area of absorbance at 250 nm contained within the same time window in which the peak eluted in T=0 for the 100% intact mRNA.

Chi18 mRNA construct = test: Size Exclusion Base Hydrolysis Degradation Assay, Chi18; details: for T0 R1 peak area at 250 nm: Chi18 0.1 mg/mL, 25 mM amino acid, 50 mM CAPS, T=0, replicate 1; for T2 Avg, peak area as percentage of T=0 / T2 R1 peak area at 250 nm / T10 Avg, peak area as percentage of T=0 / T10 R1 peak area at 250 nm / T24 Avg, peak area as percentage of T=0 / T24 R1 peak area at 250 nm / T0 Avg, peak area as percentage of T=0: Chi18, 25 mM amino acid; for T2 Avg, peak area as percentage of T=0 / T2 R1 peak area at 250 nm / T10 Avg, peak area as percentage of T=0 / T10 R1 peak area at 250 nm / T24 Avg, peak area as percentage of T=0 / T24 R1 peak area at 250 nm: 50 mM CAPS pH 11, room temperature; for T2 Avg, peak area as percentage of T=0 / T2 R1 peak area at 250 nm: 2 hrs; for T2 R1 peak area at 250 nm / T10 R1 peak area at 250 nm / T24 R1 peak area at 250 nm: replicate 1; for T10 Avg, peak area as percentage of T=0 / T10 R1 peak area at 250 nm: 10 hrs; for T24 Avg, peak area as percentage of T=0 / T24 R1 peak area at 250 nm: 24 hrs; for T0 Avg, peak area as percentage of T=0: T=0 (reference)
Experimental: as §1, §2, §3

FgenL model RNA = details: percent protection, pH 11.0, 44° C., 16 hours, n = 2
Chi18 model RNA [1] = test: Droplet Digital Polymerase Chain Reaction (ddPCR) Assay, Chi18; details: percent protection, pH 11.0, 30° C., 16 hours, n = 2
Summary of the method: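 Chi18 (25 fg/μL) or FgenL (10 fg/μL) RNA at pH 11.0 incubated 16 h with amino acids (10-point half-log series, ~300 mM top stock in CAPS), at 30° C or 44° C respectively. Intact RNA reverse-transcribed, ddPCR 5′-positive droplet fraction taken as protection; EC50 from four-parameter logistic fit.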

Chi18 model RNA [2] = test: TapeStation Assay, Chi18 model RNA; parameters: Conc. chi18#1 / Conc. chi18#2: unit not given here; details: for % Control N = 1 / % Control N = 2 / % Control Avg.: Chi18 RNA, 20 mM amino acids, 50 mM CAPS pH 11, 50° C. 15 min; for % Control N = 1 / % Control N = 2: vs Time 0; for % Control Avg.: vs Time 0, Avg N=2; for Conc. chi18#1 / Conc. chi18#2: intact Chi18 RNA after 15 min at 50° C.; for Conc. chi18#1: 20 mM amino acids in 50 mM CAPS pH 11, run #1; for Conc. chi18#2: 20 mM amino acids in 50 mM CAPS pH 11, run #2
Summary of the method: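 Chi18 or FgenL model RNA at 50 ng/μL in 50 mM CAPS pH 11 was mixed with amino acids (stocks in CAPS, readjusted to >pH 11) and heated at 50° C for 0 or 15 minutes; time-0 samples stayed on ice. Intact RNA was measured by capillary electrophoresis with optical detection and compared with a no-degradation baseline.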

SMILES | T0 R1 peak area at 250 nm (FgenL mRNA construct) | T2 Avg, peak area as percentage of T=0 (FgenL mRNA construct) [%] | T2 R1 peak area at 250 nm (FgenL mRNA construct) | T10 Avg, peak area as percentage of T=0 (FgenL mRNA construct) [%] | T10 R1 peak area at 250 nm (FgenL mRNA construct) | T24 Avg, peak area as percentage of T=0 (FgenL mRNA construct) [%] | T24 R1 peak area at 250 nm (FgenL mRNA construct) | T0 Avg, peak area as percentage of T=0 (FgenL mRNA construct) [%] | T0 R1 peak area at 250 nm (Chi18 mRNA construct) | T2 Avg, peak area as percentage of T=0 (Chi18 mRNA construct) [%] | T2 R1 peak area at 250 nm (Chi18 mRNA construct) | T10 Avg, peak area as percentage of T=0 (Chi18 mRNA construct) [%] | T10 R1 peak area at 250 nm (Chi18 mRNA construct) | T24 Avg, peak area as percentage of T=0 (Chi18 mRNA construct) [%] | T24 R1 peak area at 250 nm (Chi18 mRNA construct) | T0 Avg, peak area as percentage of T=0 (Chi18 mRNA construct) [%] | EC50 (FgenL model RNA) [mM] | EC50 (Chi18 model RNA [1]) [mM] | % Control N = 1 (Chi18 model RNA [2]) [%] | % Control N = 2 (Chi18 model RNA [2]) [%] | other results
N[C@@H](CCC(=O)N[C@@H](CS)C(=O)NCC(=O)O)C(=O)O [Glutathione] | 16850 | 37.7 | 4627 | 2.3 | 0 | 0.0 | 0 | 100.0 | 13157 | 48.7 | 7747 | 0.0 | 0 | 0.0 | 0 | 100.0 | > 30 | > 30 | 29.3 | 26.7 | % Control Avg. (Chi18 model RNA [2]): 28.0%; Conc. chi18#1 (Chi18 model RNA [2]): 15.6; Conc. chi18#2 (Chi18 model RNA [2]): 14.1
NCC(=O)O [Glycine] | 18897 | 29.3 | 3657 | 0.0 | 0 | 0.0 | 0 | 100.0 | 32571 | 69.6 | 21950 | 0.0 | 0 | 0.0 | 0 | 100.0 | > 30 | 15 | 42.0 | 51.4 | % Control Avg. (Chi18 model RNA [2]): 46.7%; Conc. chi18#1 (Chi18 model RNA [2]): 22.4; Conc. chi18#2 (Chi18 model RNA [2]): 27.2
N[C@@H](Cc1c[nH]cn1)C(=O)O [Histidine] | 18949 | 34.5 | 8325 | 0.0 | 0 | 0.0 | 0 | 100.0 | 27170 | 152.8 | 14612 | 2.8 | 1391 | 0.0 | 0 | 100.0 | > 30 | > 30 | 3.0 | 3.2 | % Control Avg. (Chi18 model RNA [2]): 3.1%; Conc. chi18#1 (Chi18 model RNA [2]): 1.58; Conc. chi18#2 (Chi18 model RNA [2]): 1.68
O=C(O)[C@@H]1C[C@@H](O)CN1 [Hydroxyproline] | 16626 | 22.4 | 5048 | 0.0 | 0 | 0.0 | 0 | 100.0 | 13659 | 76.2 | 8540 | 34.2 | 3280 | 0.0 | 0 | 100.0 | > 30 | > 30 | 17.3 | 17.3 | % Control Avg. (Chi18 model RNA [2]): 17.3%; Conc. chi18#1 (Chi18 model RNA [2]): 9.2
CC[C@H](C)[C@H](N)C(=O)O [Isoleucine] | 14903 | 7.2 | 1687 | 0.0 | 0 | 0.0 | 0 | 100.0 | 15361 | 63.2 | 7533 | 33.8 | 4699 | 0.0 | 0 | 100.0 | > 30 | > 19 | 19.3 | 24.2 | % Control Avg. (Chi18 model RNA [2]): 21.8%; Conc. chi18#1 (Chi18 model RNA [2]): 10.3; Conc. chi18#2 (Chi18 model RNA [2]): 12.8
